In patent publication US20110028495A1, “THE USE OF 6-HALOGENO-[1,2,4]-TRIAZOLO-[1,5-a]-PYRIMIDINE COMPOUNDS FOR COMBATING PESTS IN AND ON ANIMALS” (priority 2007, published 2011):

Key:
[1] = test system: Mediterranean fruitfly (Ceratitis capitata); experiment: Activity against Mediterranean fruitfly (eggs/hatched larvae, microtiter plate); conditions: 144 h, eggs sprayed, 6 days, compared to 0% mortality of untreated controls
Description: B.1 Activity Against Mediterranean Fruitfly (Ceratitis capitata)
The compounds were formulated in 1:3 DMSO:water. 50 to 80 eggs were placed into microtiterplates filled with 0.5% agar-agar and 14% diet in water. The eggs were sprayed with 5 μl of the test solution, the plates were sealed with pierced foils and kept at 27-29° C. and 75-85% humidity under fluorescent light for 6 days. Mortality was assessed on the basis of the agility of the hatched larvae. Tests were replicated 2 times.

[2] = test system: Cat flea (Ctenocephalides felis); experiment: Ingestion assay with Ctenocephalides felis (treated cow blood); conditions: po, adult C. felis fed treated cow blood, 72 hours post treatment, read-out: EC50 (mortality of C. felis)
Description: B.5 Activity Against Cat Flea (Ctenocephalides felis)
B.5.1 Ingestion Assay with Ctenocephalides felis
The compounds were formulated in 100% DMSO and were diluted with fresh cow blood to final testing concentrations of 50 ppm, 12.5 ppm, 3.125 ppm, 0.78 ppm and 0.195 ppm. Ten adult C. felis were loaded into testing cages and exposed to blood containing the test compound for up to 72 hours. Blood was changed at 24 hour intervals until the test was completed and kept at 37° C. for duration of the test. The efficacy of a compound was determined based on mortality of C. felis at 72 hours post treatment.

[3] = test system: Caenorhabditis elegans; experiment: Activity against Caenorhabditis elegans (L1 larval motility); conditions: L1 C. elegans, dose response assay, read-out: EC50 (reduction in motility of L1 larvae)
Description: B.2 Activity Against Caenorhabditis elegans
(§1) The compounds were formulated in 100% DMSO and were tested in microtiter plates containing 50 μl nematode growth media, 1% E. coli and 20 L1 C. elegans. The efficacy of a compound was determined based on the motility of the larvae as compared to average motility of control wells containing DMSO only. Compounds with >80% reduction in motility were tested in a dose response assay to determine EC50 values.

[4] = test system: cat fleas; experiment: Efficacy against fleas in dogs (spot-on); type: in vivo, cat fleas on dogs; conditions: 20 mg/kg, days 9, 16 and 23, compared to the placebo group
Description: (§2) B.7 Study to Evaluate Efficacy of Compounds Against Fleas and Ticks in Dogs
(§3) Dogs were infested with 100 cat fleas on days −1, 8, 15, 22, 29, and 36, and 50 brown dog ticks on days −1, 7 14, 21, 28, and 35. Infested dogs receive a treatment of a compound or placebo in the form of spot-on applied at the middle of the neck between the shoulder blades. Live fleas and ticks were removed and counted on days 2, 9, 16, 23, 30, and 37.

[5] = test system: brown dog ticks; experiment: Efficacy against ticks in dogs (spot-on); type: in vivo, brown dog ticks on dogs; conditions: 20 mg/kg, days 9, 16 and 23, compared to the placebo group
Description: as §2, §3

[6] = test system: Yellowfever mosquito (Aedes aegypti); experiment: Activity against yellowfever mosquito (neonate larval motility); conditions: neonate A. aegypti larvae, dose response assay
Description: B.4. Activity Against Yellowfever Mosquito (Aedes aegypti)
as §1, with “180 ul X Luria Broth media” for “50 μl nematode growth media, 1% E. coli”, “10 neonate A. aegypti larvae.” for “20 L1 C. elegans.”

Row | SMILES | LC50 [2] [µg/mL] | EC50 [3] [µg/mL] | further results
1 | Cc1nc2ncnn2c(NC(C)c2ccc(OC(F)(F)CF)cc2)c1Cl (racemic) [C.I.38] | < 50 | – | mortality at 2500 ppm [1]: > 75%
2 | CCc1nc2ncnn2c(NC(C)c2ccc(OC(F)(F)CF)cc2)c1Cl (racemic) [C.I.49] | – | – | mortality at 2500 ppm [1]: > 75%
3 | CCc1nc2ncnn2c(NC(C)c2ccc(-c3ccccc3)cc2)c1Cl (racemic) [C.I.59] | – | < 10 | –
4 | Cc1nc2ncnn2c(NC2CCC(C)CC2)c1Cl (stereo not shown) [C.I.1] | – | < 10 | –
5 | Cc1nc2ncnn2c(NC2CCC(C(C)C)CC2)c1Cl (stereo not shown) [C.I.2] | – | < 10 | –
6 | CCC(C)[C@H]1CC[C@@H](Nc2c(Cl)c(C)nc3ncnn23)CC1 (stereo partly shown) [C.I.5] | < 50 | – | –
7 | Cc1nc2ncnn2c(NCc2ccc(Oc3ccc(Cl)cc3)cc2)c1Cl [C.I.10] | < 50 | < 10 | –
8 | Cc1nc2ncnn2c(NCc2ccc(Oc3ccc(Br)cc3)cc2)c1Cl [C.I.11] | < 50 | < 10 | –
9 | Cc1nc2ncnn2c(NCc2ccc(Oc3ccc(Cl)c(Cl)c3)cc2)c1Cl [C.I.12] | – | < 10 | –
10 | CCc1nc2ncnn2c(NC2CCC(C(C)C)CC2)c1Cl (stereo not shown) [C.I.17] | < 50 | – | –
11 | CCc1nc2ncnn2c(NC2CCC(C(C)CC)CC2)c1Cl (stereo not shown) [C.I.18] | < 50 | – | –
12 | CCc1nc2ncnn2c(N[C@H]2CC[C@@H](C(C)(C)C)CC2)c1Cl [C.I.20] | < 50 | – | efficacy against fleas [4]: > 80%; efficacy against ticks [5]: > 80%
13 | CCc1nc2ncnn2c(N[C@@H](C)c2ccc(Cl)cc2)c1Cl [C.I.22] | – | – | mortality at 2500 ppm [1]: > 75%
14 | CCc1nc2ncnn2c(N[C@@H](C)c2ccc(Br)cc2)c1Cl [C.I.23] | – | < 10 | –
15 | CCc1nc2ncnn2c(N[C@@H](C)c2ccc(OC(F)F)cc2)c1Cl [C.I.31] | < 50 | – | EC50 (reduction in motility of larvae) [6]: < 1 ppm
16 | CCc1nc2ncnn2c(NCCc2ccc(OC(F)(F)F)cc2)c1Cl [C.I.32] | – | < 10 | –
17 | Cc1nc2ncnn2c(N[C@H]2CC[C@@H](C(F)(C(F)(F)F)C(F)(F)F)CC2)c1Cl [C.I.34] | < 50 | < 10 | –
18 | Cc1nc2ncnn2c(N[C@@H](C)c2ccc3ccccc3c2)c1Cl [C.I.37] | < 50 | – | –
19 | Cc1nc2ncnn2c(N[C@@H](C)c2ccc(OC(F)(F)C(F)F)cc2)c1Cl [C.I.40] | – | < 10 | –
20 | CCC(Nc1c(Cl)c(C)nc2ncnn12)c1ccc(OC(F)(F)C(F)C(F)(F)F)cc1 (stereo not shown) [C.I.43] | – | < 10 | mortality at 2500 ppm [1]: > 75%
21 | CCc1nc2ncnn2c(N[C@H]2CC[C@@H](CCC(F)(F)F)CC2)c1Cl [C.I.45] | – | < 10 | –
22 | CCc1nc2ncnn2c(N[C@H]2CC[C@@H](C(F)(C(F)(F)F)C(F)(F)F)CC2)c1Cl [C.I.46] | – | < 10 | –
23 | CCc1nc2ncnn2c(NC(CC)c2ccc(OC(F)(F)C(F)C(F)(F)F)cc2)c1Cl (stereo not shown) [C.I.53] | – | – | mortality at 2500 ppm [1]: > 75%
24 | CCc1nc2nc(C)nn2c(N[C@H]2CC[C@@H](C(C)(C)C)CC2)c1Cl [C.I.55] | – | – | mortality at 2500 ppm [1]: > 75%
25 | CCc1nc2nc([S+](C)[O-])nn2c(N[C@@H](C)c2ccc(C)cc2)c1Cl (stereo partly shown) [C.I.56] | – | < 10 | –
26 | CCc1nc2ncnn2c(N[C@@H](C)c2cccc(OCc3ccccc3)c2)c1Cl [C.I.58] | – | < 10 | –
